The text below walks through data of patent US20250312344A1, “COMBINATION THERAPIES USING PRMT5 INHIBITORS AND IMMUNE CHECKPOINT INHIBITORS FOR THE TREATMENT OF CANCER” (MIRATI THERAPEUTICS, INC., priority 2024, published 2025).

Structures are written as SMILES.

For the assay, the system named is murine syngeneic cancer model with a homozygous deletion of the Mtap gene (Mtap^DEL). As to the kind of experiment: MRTX1719 + immune checkpoint blockade combination study, tumor growth in Mtap^DEL syngeneic model. The class given is in vivo, BALB/c mice. As for the experimental part:
Immune-competent female BALB/c mice were implanted with murine syngeneic cancer model with a homozygous deletion of the Mtap gene (Mtap^DEL). Mouse health was monitored daily, and caliper measurements began when tumors were palpable. Tumor volume measurements were determined utilizing the formula 0.5×L×W2 in which L refers to length and W refers to width of each tumor. When tumors reached approximately 80 mm^3, animals were randomized to receive A) vehicle (0.5% methylcellulose (4000 cps)/0.2% Tween80 in water) and isotype control antibodies), B) immune checkpoint blockade antibodies targeting mouse-Ctla-4 and mouse-Pd-1 and vehicle, C) a PRMT5 inhibitor and isotype control antibodies, or D) the PRMT5 inhibitor and immune checkpoint blockade antibodies targeting mouse-Ctla-4 and mouse-Pd-1. Tumor volumes were measured two or three times per week (n=10/treatment group). Tumor Growth Inhibition (% TGI) was calculated using the formula: (1−(Final Drug Treated Tumor Volume−Initial Drug Treated Tumor Volume)/(Final Vehicle Treated Tumor Volume−Initial Vehicle Treated Tumor Volume))*100.
This example was conducted according to the study procedure described above. The PRMT5 inhibitor was MRTX1719 administered at 100 mg/kg once a day (QD). MRTX1719 used is as described herein.
The immune checkpoint antibody targeting mouse-Ctla-4 was dosed on Day 0 while the antibody targeting mouse-Pd-1 was dosed on Day 0, 3 and 6.

Take `Cn1ncc(-c2ccc3c(=O)[nH]nc(CN)c3c2)c1-c1c(F)c(Cl)cc(OC2CC2)c1C#N` [MRTX1719]: the Tumor volume is, setting by setting: (Study Day 1, MRTX1719 100 mg/kg QD, aCTLA-4 Day 0, aPD-1 Day 0, 3, 6) 115 mm^3; (Study Day 3, MRTX1719 100 mg/kg QD, aCTLA-4 Day 0, aPD-1 Day 0, 3, 6) 118 mm^3; (Study Day 6, MRTX1719 100 mg/kg QD, aCTLA-4 Day 0, aPD-1 Day 0, 3, 6) 154 mm^3; (Study Day 8, MRTX1719 100 mg/kg QD, aCTLA-4 Day 0, aPD-1 Day 0, 3, 6) 182 mm^3; (Study Day 10, MRTX1719 100 mg/kg QD, aCTLA-4 Day 0, aPD-1 Day 0, 3, 6) 233 mm^3; (Study Day 13, MRTX1719 100 mg/kg QD, aCTLA-4 Day 0, aPD-1 Day 0, 3, 6) 352 mm^3. The Tumor volume (Study Day 15, MRTX1719 100 mg/kg QD, aCTLA-4 Day 0, aPD-1 Day 0, 3, 6) is reported as 558 mm^3; the Tumor volume (Study Day 17, MRTX1719 100 mg/kg QD, aCTLA-4 Day 0, aPD-1 Day 0, 3, 6) turned out to be 858 mm^3; the Tumor volume (Study Day 20, MRTX1719 100 mg/kg QD, aCTLA-4 Day 0, aPD-1 Day 0, 3, 6) is given as 1010 mm^3; the Tumor volume (Study Day 22, MRTX1719 100 mg/kg QD, aCTLA-4 Day 0, aPD-1 Day 0, 3, 6) is reported as 1171 mm^3; the Tumor volume (Study Day 24, MRTX1719 100 mg/kg QD, aCTLA-4 Day 0, aPD-1 Day 0, 3, 6) is 1312 mm^3; the Tumor volume (Study Day 27, MRTX1719 100 mg/kg QD, aCTLA-4 Day 0, aPD-1 Day 0, 3, 6) worked out at 1644 mm^3. For the setting “Study Day −1 (before dosing), n=10/group”, the Tumor volume is reported as 82 mm^3. In addition, for the setting “Tumor Growth Inhibition vs vehicle, Day 17, MRTX1719 100 mg/kg QD, aCTLA-4 Day 0, aPD-1 Day 0, 3, 6”, the “% TGI (Day 17)” value is recorded as 43.5%.
